Laboratory results: US12012574B2, “Process for removing dry surface biofilm” (Whiteley Corporation Pty. Ltd., priority 2013, dated 2024)

Tests used:
[1] = tested on: 12 day dry surface biofilm (Staphylococcus aureus ATCC 25923); assay: Initial screening using TOC to assess removal of dry surface biofilm; assay type: cell-based; conditions: for TOC Coupons with Biofilm: biofilm coated Pyrex coupons after cleaning, Table 14 dilution; for TOC due to biofilm: biofilm coupon TOC minus blank coupon TOC; for TOC Blank coupons: fresh clean coupons exposed to test product at Table 14 dilution; for % Reduction (TOC): relative to negative control (Milli-Q water)
[2] = tested on: dry surface biofilm of S. aureus; assay: Kill of organisms within dry surface biofilm (Example 18); assay type: cell-based, Staphylococcus aureus
planktonic S. aureus = assay: Disinfectant efficacy against planktonic bacteria (Example 17); assay type: cell-based, Staphylococcus aureus; conditions: dirty conditions (5% bovine calf serum), 5 minutes contact time
[3] = tested on: 12 day dry surface biofilm; assay: Bacterial reduction from 12 day dry surface biofilm, clean and dirty conditions (Examples 15, 16); assay type: cell-based, Staphylococcus aureus; conditions: for Log reduction: 5 minute contact time
Procedure: The bacterial reductions obtained from a 12 day dry surface biofilm were assessed under clean conditions using Example 9, Chlorclean tablets and a generic SDIC tablet
Each test product was dissolved in water.
Coupons coated in 12-day dry surface biofilm were produced as per Example 8. 2 ml of each test solution, followed by 2 ml of water were added to the wells in a tissue culture plate.
After a 5 minute contact time, coupons were removed from the disinfectant solutions, rinsed twice using 30 ml phosphate buffered saline for 5 seconds, and then placed into 5 ml tubes containing 2 ml of a neutralizer solution comprising 6% Tween 80 plus 1% sodium thiosulfate plus 5% bovine serum plus 10% Bovine Serum Albumin.
The tubes were sonicated for 20 minutes and then vortexed for 2 minutes. Serial 10-fold dilutions were then made and 100 ul of neat, 10^−1, 10^−2, 10^−3 and 10^−4 dilutions were plated on Horse Blood Agar plates. The plates were incubated at 37° C. overnight and then enumerated.
Control coupons, not exposed to disinfectant were similarly worked up to allow the log reductions to be calculated
The bacterial reductions obtained from a 12 day dry surface biofilm were assessed under dirty conditions using Example 9, Chlorclean tablets and a generic SDIC tablet. Each test product was dissolved in artificial hard water containing 340 ppm CaCO3 to which was added 5% Bovine Calf Serum.
Coupons coated in 12-day dry surface biofilm were produced as per Example 8. 2 ml of each test solution, followed by 2 ml of hard water to which was added 5% bovine calf serum were added to the wells in a tissue culture plate.
Control coupons, not exposed to disinfectant were similarly worked up to allow the log reductions to be calculated.

[4] = tested on: 12 day dry surface biofilm; assay: Protein removal from dry surface biofilm coated coupons (BCA assay); assay type: cell-based, Staphylococcus aureus
Procedure: 12 day biofilm was grown on PET coupons following the methodology of Example 8. The rods containing the biofilm coated coupons were then removed and any loosely bound biofilm washed off with Milli-Q water as described in Example 8.
One rod holding three dry surface biofilm coated coupons was then placed into 30 ml of a solution of Example 9 (17 g/litre) for 10 minutes. A second rod was placed into 30 ml of a solution of Matrix (1:50 dilution), and a third rod placed into 30 ml Milli-Q water to serve as a positive control. An additional rod, holding 3 uncoated coupons was sterilized and used as a negative control.
After 10 minutes, each rod was placed into 30 ml of 1M sodium hydroxide solution to elute off all remaining protein. Aliquots from each solution were then taken and tested for protein using a Bicinchroninic Acid (BCA) assay, using a micro BCA test kit (Sigma Aldrich).
In order to perform the BCA assay, a series of standard solutions of bovine serum albumin were prepared to produce a standard curve. […] The samples were then incubated for 60 minutes at 60° C., and the absorbance at 562 nm read using a spectrophotometer (see Table 17). […]

[5] = tested on: Staphylococcus aureus dry surface biofilm; conditions: solution containing 20,000 ppm available chlorine; cited from earlier work
[6] = absence of biological soil, five minutes contact time
[7] = dirty conditions (presence of an organic soil), 5 minutes contact time

Row | Structure (SMILES) | TOC Coupons with Biofilm [1] | TOC due to biofilm [1] | TOC Blank coupons [1] | % Reduction (TOC) [1] | log10 reduction of biofilm viability [2, 6] | log10 reduction of biofilm viability [2, 7] | log10 reduction / activity (planktonic S. aureus) | Neutraliser control ([3]; clean conditions) | Log reduction ([3]; clean conditions) | Neutraliser control ([3]; dirty conditions) | Log reduction ([3]; dirty conditions: hard water 340 ppm CaCO3 with 5% Bovine Calf Serum) | log10 reduction of biofilm viability ([2]; absence of biological soil, five minutes contact time, listed as SIDC) | Percentage reduction ([4]; Example 14: protein, shorter contact time (not given)) | Percentage protein reduction ([4]; Example 13: 10 minute contact time, calculated from positive control (Milli-Q water)) | survival after exposure [5]
1 | [Na+].[OH-] [1M NaOH, sodium hydroxide] | 0.16 µg | -0.01 µg | 0.17 µg | 100% |  |  |  |  |  |  |  |  |  |  | 
2 | OO [hydrogen peroxide] |  |  |  |  | zero and no effect | zero | completely deactivated |  |  |  |  |  |  |  | 
3 | O=c1nc([O-])n(Cl)c(=O)n1Cl.[Na+] [SDIC, sodium diisocyanurate] |  |  |  |  | 2.85 log10 | 0.03 log10 |  | 0.045 | 6.55 log | 0.018 | 0.007 log | 3 log10 | 17.65 |  | 
4 | OCl [sodium hypochlorite, Sodium hypochlorite] | 1.87 µg | 1.53 µg | 0.34 µg | 79% |  |  |  |  |  |  |  |  |  | 11.50 | still showing survivors
